Assay results as given in patent US20040224995A1 (University of North Texas Health Science Center at Fort …, priority 2003, published 2004).

What was measured:
HT-22 cells = assay: HT-22 cell viability during glutamate exposure (calcein AM assay); format: cell-based; settings: for neuroprotective effect of prostaglandins against glutamate toxicity: added 24 h before glutamate (15 mM), viability 15 h later
Text: Although not wanting to be bound by theory, the toxicity of glutamate in HT-22 (32) and C6 glioma (33) cell lines is mediated through oxidative stress. HT-22 cells lack ionotropic N-methyl-D-aspartate (“NMDA”) glutamate receptors, and the glutamate-induced cell death appears to occur via a slow onset oxidative stress (32,34,35). Glutamate blocks cystine uptake by inhibiting the glutamate/cystine antiporter in both HT-22 (32) and C6 glioma (33) cell lines. Since cysteine is required for glutathione (“GSH”) synthesis, the intracellular concentration of GSH decreases as a consequence. BSO depletes intracellular glutathione by inhibiting γ-glutamylcysteine synthetase, the rate-limiting enzyme in glutathione synthesis (33). […] Troglitazone further protected HT-22 (FIG. 14) and RGC-5 (FIG. 15) against BSO. The cell viability was taken at time points around about 14 to 24 hours post-insult time. In some of the experiments, the viability of cells was determined using 2.5 μM calcein AM assay in phosphate-buffered saline (PBS 1×). After 25 minutes of incubation, live cells were distinguished by the presence of intracellular esterase activity, which cleaves the calcein AM dye, producing a bright green fluorescence, as shown in FIG. 22. Viability was measured in Relative Fluorescent Units (“RFU”), and expressed as percentage of vehicle-treated control values.
15d-PGJ2 and two TZD's (e.g. troglitazone and ciglitazone) were tested for their ability to protect HT-22 cells against glutamate toxicity. […] HT-22 cells were treated with 15-dPGJ2 twenty-four hours prior to a glutamate insult (15 mM). […] The data of FIG. 24 was quantified using the calcein AM assay (see FIG. 22). Results are expressed in % survival of the control (non-glutamate-treated) cultures. DMSO received the vehicle only for 15d-PGJ2. Shown are mean±SEM for 6. The asterisk (“*”) indicates p<0.05 vs. respective control.
In order to conduct these experiments, the following compounds: PGA1; PGA2; PGJ2; Δ^12PGJ2; and 15d-PGJ2 were ordered from Biomol, Plymouth Meeting, Pa. HT-22, an immortalized mouse hippocampal cell line, C6 rat glioma, RGC-5 retinal ganglion cells were used. Cells were grown to confluence in DMEM media, and supplemented with 10% charcoal/dextran-treated fetal bovine serum (“FBS”), and […] gentamycin at 37° C. under 95% air, 5% CO2. HT-22, C6, and RGC-5 cells were plated at a density of 50,000, 35,000, and 10,000 cells/ml, respectively, in 96-well plates. Wells were pre-treated with cyclopentenone PGs at various times prior to being subjected to glutamate, hydrogen peroxide (H2O2), or BSO insults.
The WY-14643, Ciglitazone, Troglitazone, 9-cis retinoic acid, and 15d-PGJ2 compounds were purchased from Biomol (Plymouth Meeting, Pa.). L-165041 and L-783483 were kindly provided by Merck Laboratories. The cell lines used were HT-22, an immortalized mouse hippocampal cell line, and SK—N—SH, a human neuroblastoma cell line. The HT-22 cells were obtained from David Schubert (Salk Institute, San Diego, Calif.). The HT-22 line was originally selected from HT-4 cells based on glutamate sensitivity. HT-4 cells were immortalized from primary hippocampal neurons using a temperature-sensitive SV-40 T antigen (Morimoto and Koshland, 1990). SK—N—SH were obtained from ATCC (Manassas, Va.). HT-22 and SK—N—SH cells were grown to confluence in DMEM and RPMI-1640 media, respectively, and supplemented with 10% charcoal/dextran-treated fetal bovine serum (FBS), and 5 mg/ml gentamycin at 37° C. under 95% air, 5% CO2. HT-22 cells were plated at a density of 50,000 cells/ml (5,000 cells/well), and SK—N—SH were plated at a density of 120,000 to 150,000 cells/ml (12,000 to 15,000 cells/well) in 96-well plates. In most studies, wells were pre-treated with PPAR ligands over a wide dose range at various times prior to being subjected to either glutamate, hydrogen peroxide (H2O2), or serum deprivation insults. In some studies, the insults were applied prior to the addition of the PPAR ligand. […]

PPAR-γ = settings: cited from earlier work
PPAR-β = molecular target: T1, PPAR-β (Homo sapiens, UniProt Q03181); settings: Berger et al., 1999; read-out: EC50 for activation of PPAR-β; cited from earlier work
T1 sequence (Q03181 1-441): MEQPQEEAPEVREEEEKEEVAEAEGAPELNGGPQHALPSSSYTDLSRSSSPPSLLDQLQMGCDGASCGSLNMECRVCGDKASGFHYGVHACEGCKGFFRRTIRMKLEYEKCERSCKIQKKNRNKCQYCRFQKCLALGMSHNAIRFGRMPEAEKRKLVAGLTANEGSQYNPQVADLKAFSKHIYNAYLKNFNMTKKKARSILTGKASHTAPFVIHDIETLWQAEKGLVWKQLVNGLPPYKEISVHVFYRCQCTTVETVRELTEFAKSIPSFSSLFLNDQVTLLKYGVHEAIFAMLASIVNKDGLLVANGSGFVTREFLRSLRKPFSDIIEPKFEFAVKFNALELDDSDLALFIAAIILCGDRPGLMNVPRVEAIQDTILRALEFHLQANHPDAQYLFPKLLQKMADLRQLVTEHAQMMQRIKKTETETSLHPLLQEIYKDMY

PPARγ = settings: Berger et al., 1999; cited from earlier work
[1] = tested on: infarct after MCA occlusion; settings: intraventricular, 660 ng, 30 min before MCA occlusion; Satoh et al.; cited from earlier work
PPAR alpha = settings: Issemann and Green, 1990; read-out: EC50 for activation of PPAR alpha; cited from earlier work

CC1=C(/C=C/C(C)=C\C=C\C(C)=C\C(=O)O)C(C)(C)CCC1 [9-cis retinoic acid]
effect of adding 9-cis retinoic acid on neuroprotection by 15d-PGJ2 (HT-22 cells; 1 μM 9-cis retinoic acid with 15d-PGJ2, glutamate exposure): did not alter the neuroprotective effects

CC(C)(c1ccc(OCC2CO2)cc1)c1ccc(OCC2CO2)cc1 (stereo not shown) [BADGE, Bisphenol diglycidyl ether]
toxicity in the cell model (HT-22 cells; at concentrations close to Ki (100 μM)): showed some toxicity | Ki (PPAR-γ; read-out: Ki value as PPARγ antagonist): 100000 nM

CCCc1c(OCCCOc2ccc(OCC(=O)O)cc2)ccc(C(C)=O)c1O [L-165041]
EC50 (PPAR-β): ~500 nM | effect on glutamate toxicity (HT-22 cells; 1 nM to 50 μM, pretreated 24 h, glutamate 20 mM): failed to affect glutamate toxicity | concentrations inducing weak activity of PPARγ (PPARγ): > 51 µM

COC(=O)CCCCC/C=C1/C(=O)C=C[C@H]1CCCCCCc1ccc(C)cc1 [NEPP-11]
decrease of infarct volume [1]: about 50%

CCCCC[C@H](O)/C=C/[C@H]1C=CC(=O)[C@@H]1CCCCCCC(=O)O [PGA1]
neuroprotective effect of prostaglandins against glutamate toxicity (HT-22 cells): neuroprotective effects

CCCCC[C@H](O)/C=C/[C@H]1C=CC(=O)[C@@H]1C/C=C\CCCC(=O)O [PGA2]
neuroprotective effect of prostaglandins against glutamate toxicity (HT-22 cells): neuroprotective effects

CCCCC[C@H](O)/C=C/C1=C(C/C=C\CCCC(=O)O)C(=O)CC1 [PGB2]
neuroprotective effect of prostaglandins against glutamate toxicity (HT-22 cells): did not display any neuroprotective effects

Cc1cccc(Nc2cc(Cl)nc(SCC(=O)O)n2)c1C [WY 14,643]
effect at the highest concentration on glutamate toxicity (HT-22 cells; highest concentration tested, glutamate 20 mM): enhanced glutamate toxicity | prevention of glutamate-induced cell death (HT-22 cells; pretreatment 24 h, 1 to 40 μM, glutamate 20 mM): failed to prevent glutamate-induced cell death | EC50 (PPAR alpha): ~1500 nM

CC1(COc2ccc(CC3SC(=O)NC3=O)cc2)CCCCC1 (stereo not shown) [ciglitazone, 5-[4-(1-methylcyclohexylmethoxy)benzyl]-thiazolidine-2,4-dione]
neuroprotective effects (HT-22 cells; concentrations up to 40 μM): did not have any neuroprotective effects | protection against glutamate toxicity (HT-22 cells; pretreatment at various concentrations): failed to protect | affinity for PPAR-γ (PPAR-γ; similar to that of 15d-PGJ2): low micromolar (μM) range
